# Experimental data as given in US20250109127A1, “METHODS OF USE OF PHENOXYPROPYLAMINE COMPOUNDS TO TREAT DEPRESSION” (Minerva Neurosciences, Inc., priority 2013, published 2025).
# Values joined by “and” are separate entries in the source; they are usually repeats but may differ in a detail not shown here. Equal entries are not always repeated. Structures can show the parent of a compound that is named as a salt.
# System: norepinephrin release in the rat prefrontal cortex
# Assay: Microdialysis: norepinephrine release in prefrontal cortex after I.P. administration
# Assay type: in vivo
# Settings: for NOREPINEPHRIN in dialysate, individual animals / NOREPINEPHRIN in dialysate, MEAN: SON-117 0.1 mg/kg I.P.; for NOREPINEPHRIN in dialysate, individual animals: hydrochloride, 0.1 mg/kg; for NOREPINEPHRIN (% of respective basal) MEAN / NE concentrations in prefrontal cortex, significant slight increase: SON-117 0.3 mg/kg I.P.; for NOREPINEPHRIN (% of respective basal) MEAN: n = 8
# Protocol: The aim of the study was to evaluate, using microdialysis, the effects of an intraperitoneal (I.P.) administration in rats of three different doses of SON-117 on dopamine and its metabolites, serotonin and its metabolite (5-HIAA), and norepinephrine levels in prefrontal cortex.
# Thirty-two adult male Wistar rats were used for the whole study (4 groups of eight animals planned for the study, Table 1).
# Surgery was performed on rats weighing about 300 g at the beginning of the experiments. Rats were anaesthetized with Ketamine (50 mg/kg) & Xylazine (15 mg/kg) by intramuscular administration. The animals were placed in a stereotaxic apparatus in the flat-skull position at a constant setting of −3.3 mm between ear bars and the incisor bar. The animals were treated with a local anesthesic (xylocaine 1%, Astra Zeneca) and an analgesic (Temgesic, from Schering Plough, 0.05 mg/kg, s.c.). A rostrocaudal midline incision was made with a lancet to expose the dorsal skull surface. The “stereotaxic zero” was defined by the Bregma in accordance with Paxinos and Watson's atlas (1986). A hole was drilled in the skull with a drill and the meninges were pierced with a sterile needle to implant a CMA12 guide cannula which later received the dialysis probe.
# Coordinates used for implanting guide cannula in prefrontal cortex from Bregma were anteroposterior 3.7 mm, mediolateral 0.8 mm, and dorsoventral −2 mm (top of the probe was at −5 mm). The guide cannula was fixed to the skull with two stainless steel screws (1.88 mm outside diameter) anchored. An application of dental cement was added. A plastic collar allowed each animal to be tethered to a Swivel assembly of the CMA 120 awake animal system. Following surgery, rats were kept in individual cages and allowed to recover for a minimum of 3-5 days before the experimentation. The rats were handled and put in plastic bowl for 10 min at least every day to habituate the animals to their new environment for the dialysis. An I.P. administration with saline was also performed every day.
# Dialysis probes (CMA12/3 mm, membrane, 20 kD cut-off, Carnegie Medicine, Stockholm, Sweden), were carefully washed before inserting into the guide cannula. The wash was performed with the artificial cerebrospinal fluid (aCSF) medium (NaCl 147 mM, KCl 2.7 mM, CaCl2 1.2 mM, MgCl2 0.85 mM) at room temperature. The dialysis system was then equilibrated at 20° C. at a perfusion rate of 1 μl/min with a Carnegie pump (CMA100). All catheters (FEP tubing, internal volume of 1.2 μl/10 cm, and tubing adaptors) used for microdialysis were treated in the same conditions.
# The probes duly prepared were inserted into the guide cannula and the CMA120 Swivel assembly secured to the animal using a plastic collar. Flow through the dialysis probe with aCSF was maintained at a rate of 1 μl/min during the whole experimentation. The first four fractions (corresponding to 2 hours) were discarded to avoid the effects of parenchymal disturbance and to ensure that an approximate steady-state level was reached. Fractions were then collected over a period of 8.5 h during which time the animals remained quiet. The dialysates were automatically collected with an autosampler (microfraction collector CMA 140, Carnegie Medicin) and stored at −80° C. until analysis. […] Perfusion was then maintained for 7 hours with aCSF. The dialysates (30 μl) were collected into 300 μl vials, transferred into dry ice and then kept frozen (−80° C.) until analysis. Frozen samples were shipped to a partner for analysis. At the end of the microdialysis study, a PBS with colored ink was perfused through the probe in order to visualize the dialyzed area.
# Catecholamine assay: Concentrations of dopamine, DOPAC, HVA, 5-HIAA, 5-HT, and norepinephrin were determined for each sample by HPLC coupled with electrochemical detection. […]
smiles,measurement,setting,value
"Cc1nnc(-c2cc3c(OC[C@@H](O)CN4CCC(c5ccc(Cl)c(Cl)c5)CC4)cccc3o2)o1 [SON-117, (S)-1-(4-(3,4-dichlorophenyl)piperidino)-3-(2-(5-methyl-1,3,4-oxadiazol-2-yl)benzo(b)furan-4-yloxy)-2-propanol hydrochloride]","NOREPINEPHRIN in dialysate, individual animals",T1 h 30-T2 h,62.36 % of respective basal and 99.69 % of respective basal and 70.34 % of respective basal and 106.16 % of respective basal and 81.71 % of respective basal and 48.44 % of respective basal and 107.26 % of respective basal and 74.26 % of respective basal
same,"NOREPINEPHRIN in dialysate, MEAN",T1 h-T1 h 30,91.81 % of respective basal
same,"NOREPINEPHRIN in dialysate, individual animals",T1 h-T1 h 30,76.18 % of respective basal and 103.4 % of respective basal and 76.89 % of respective basal and 121.08 % of respective basal and 91.95 % of respective basal and 79.30 % of respective basal and 109.47 % of respective basal and 76.21 % of respective basal
same,"NOREPINEPHRIN in dialysate, MEAN",T2 h 30-T3 h,79.52 % of respective basal
same,"NOREPINEPHRIN in dialysate, individual animals",T2 h 30-T3 h,73.33 % of respective basal and 70.54 % of respective basal and 58.97 % of respective basal and 74.27 % of respective basal and 104.33 % of respective basal and 81.47 % of respective basal and 116.2 % of respective basal and 57.05 % of respective basal
same,"NOREPINEPHRIN in dialysate, MEAN",T2 h-T2 h 30,78.83 % of respective basal
same,"NOREPINEPHRIN in dialysate, individual animals",T2 h-T2 h 30,66.69 % of respective basal and 98.72 % of respective basal and 65.78 % of respective basal and 70.31 % of respective basal and 92.44 % of respective basal and 49.48 % of respective basal and 109.29 % of respective basal and 77.91 % of respective basal
same,"NOREPINEPHRIN in dialysate, MEAN",T3 h 30-T4 h,86.32 % of respective basal
same,"NOREPINEPHRIN in dialysate, individual animals",T3 h 30-T4 h,91.02 % of respective basal and 105.19 % of respective basal and 59.70 % of respective basal and 76.69 % of respective basal and 123.13 % of respective basal and 96.82 % of respective basal and 105.05 % of respective basal and 32.98 % of respective basal
same,"NOREPINEPHRIN in dialysate, MEAN",T3 h-T3 h 30,86.82 % of respective basal
same,"NOREPINEPHRIN in dialysate, individual animals",T3 h-T3 h 30,152.99 % of respective basal and 92.11 % of respective basal and 58.83 % of respective basal and 77.12 % of respective basal and 91.45 % of respective basal and 56.94 % of respective basal and 113.71 % of respective basal and 51.43 % of respective basal
same,"NOREPINEPHRIN in dialysate, MEAN",T4 h 30-T5 h,109.54 % of respective basal
same,"NOREPINEPHRIN in dialysate, individual animals",T4 h 30-T5 h,204.20 % of respective basal and 144.74 % of respective basal and 38.63 % of respective basal and 124.67 % of respective basal and 96.8 % of respective basal and 102.84 % of respective basal and 104.62 % of respective basal and 59.86 % of respective basal
same,"NOREPINEPHRIN in dialysate, MEAN",T4 h-T4 h 30,111.29 % of respective basal
same,"NOREPINEPHRIN in dialysate, individual animals",T4 h-T4 h 30,220.91 % of respective basal and 88.73 % of respective basal and 75.17 % of respective basal and 90.11 % of respective basal and 112.61 % of respective basal and 91.91 % of respective basal and 116.00 % of respective basal and 94.90 % of respective basal
same,"NOREPINEPHRIN in dialysate, MEAN",T5 h 30-T6 h,93.44 % of respective basal
same,"NOREPINEPHRIN in dialysate, individual animals",T5 h 30-T6 h,159.66 % of respective basal and 111.49 % of respective basal and 76.32 % of respective basal and 79.52 % of respective basal and 94.09 % of respective basal and 72.17 % of respective basal and 101.35 % of respective basal and 52.95 % of respective basal
same,"NOREPINEPHRIN in dialysate, MEAN",T5 h-T5 h 30,94.69 % of respective basal
same,"NOREPINEPHRIN in dialysate, individual animals",T5 h-T5 h 30,188.91 % of respective basal and 96.57 % of respective basal and 69.39 % of respective basal and 78.76 % of respective basal and 94.15 % of respective basal and 68.42 % of respective basal and 102.42 % of respective basal and 58.91 % of respective basal
same,"NOREPINEPHRIN in dialysate, MEAN",T6 h 30-T7 h,117.60 % of respective basal
same,"NOREPINEPHRIN in dialysate, MEAN",T6 h-T6 h 30,89.68 % of respective basal
same,"NOREPINEPHRIN in dialysate, individual animals",T6 h-T6 h 30,196.16 % of respective basal and 73.01 % of respective basal and 27.50 % of respective basal and 79.85 % of respective basal and 96.77 % of respective basal and 85.56 % of respective basal
same,"NOREPINEPHRIN in dialysate, MEAN",T-30 min-T0 (pre-dose),91.33 % of respective basal
same,"NOREPINEPHRIN in dialysate, MEAN",T-1 h 30-T-1 h (pre-dose),109.41 % of respective basal
same,"NOREPINEPHRIN in dialysate, MEAN",T-1 h-T-30 min (pre-dose),99.26 % of respective basal
same,"levels of NE compared to the citalopram treated group (two-way ANOVA, significant)","SON-117 0.1 mg/kg vs citalopram 10 mg/kg, at 4.5 h and 7 h",higher
same,NOREPINEPHRIN (% of respective basal) MEAN,T0-T30 min,109.06 % of respective basal
same,NOREPINEPHRIN (% of respective basal) MEAN,T30-T1 h,104.15 % of respective basal
same,NOREPINEPHRIN (% of respective basal) MEAN,T1 h 30-T2 h,95.77 % of respective basal
same,NOREPINEPHRIN (% of respective basal) MEAN,T1 h-T1 h 30,100.55 % of respective basal
same,NOREPINEPHRIN (% of respective basal) MEAN,T2 h 30-T3 h,106.82 % of respective basal
same,NOREPINEPHRIN (% of respective basal) MEAN,T2 h-T2 h 30,100.26 % of respective basal
same,NOREPINEPHRIN (% of respective basal) MEAN,T3 h 30-T4 h,128.69 % of respective basal
same,NOREPINEPHRIN (% of respective basal) MEAN,T3 h-T3 h 30,116.32 % of respective basal
same,NOREPINEPHRIN (% of respective basal) MEAN,T4 h 30-T5 h,125.81 % of respective basal
same,NOREPINEPHRIN (% of respective basal) MEAN,T4 h-T4 h 30,119.37 % of respective basal
same,NOREPINEPHRIN (% of respective basal) MEAN,T5 h 30-T6 h,135.41 % of respective basal
same,NOREPINEPHRIN (% of respective basal) MEAN,T5 h-T5 h 30,124.93 % of respective basal
same,NOREPINEPHRIN (% of respective basal) MEAN,T6 h 30-T7 h,140.96 % of respective basal
same,NOREPINEPHRIN (% of respective basal) MEAN,T6 h-T6 h 30,137.68 % of respective basal
same,NOREPINEPHRIN (% of respective basal) MEAN,T-30 min-T0 (before administration),94.72 % of respective basal
same,NOREPINEPHRIN (% of respective basal) MEAN,T-1 h 30-T-1 h (before administration),105.37 % of respective basal
same,NOREPINEPHRIN (% of respective basal) MEAN,T-1 h-T-30 min (before administration),99.90 % of respective basal
same,"NE concentrations in prefrontal cortex, significant slight increase",at 3.5 h,117%
same,"NE concentrations in prefrontal cortex, significant slight increase",from 4.5 h to 7 h,128%
same,"levels of NE compared to the citalopram treated group (two-way ANOVA, significant)","SON-117 0.3 mg/kg vs citalopram 10 mg/kg, at 3.5 h, 4 h, 4.5 h, 5 h, 5.5 h, 6 h and 7 h",higher
same,NE dialysate levels vs mean pre-administration value,SON-117 3 mg/kg IP,no statistically significant differences
same,"levels of NE compared to the citalopram treated group (two-way ANOVA, significant)","SON-117 3 mg/kg vs citalopram 10 mg/kg, at 1.5 h and 3.5 h",higher
same,"release of NE, maximum increase","SON-117, three doses tested, 7 h after administration",129%
